The source of these data is publication PMC7287882, “Dual miRNases for Triple Incision of miRNA Target: Design Concept and Catalytic Performance” (Molecules, 2020).

Data set [1] concerns miR-17. Nature of the data set: Ribonuclease activity assay at different concentrations of KCl. The following applies: miRNA 1 µM, DC 20 µM, 37 °C, 48 h; for Cleavage: 20 mM Tris-HCl pH 7.8, 8 mM MgCl2, 1 mM DTT, 0.02 mg/mL BSA, mean ± s.e. It counts as biochemical. The method, then:
Potassium ions play an important role in the regulation of cell homeostasis by maintaining the membrane potential, cell volume and pH, and may also have an influence on the performance of artificial ribonucleases. […] In order to understand the effect of K^+ ions on the efficiency of miRNA cleavage by DCs, miR-17 was incubated with the matching DC in the buffer containing 50 mM Tris-HCl, pH 7.0, 1 mM DTT, 0.02 mg/mL BSA and different K^+ concentration varied from 0 to 400 mM. […] In the absence of potassium and at a concentration of more than 200 mM, the efficiency of miRNA cleavage was 2-fold reduced.
Reaction with different concentration of KCl was performed in reaction mixtures (8 µL) containing 320 cpm (Cherenkov’s counting) of [^32P]-miR-17, 1 μM unlabeled miRNA, 20 µM of miRNA-17-DC in buffers contained 20 mM Tris-HCl, pH 7.8, 8 mM MgCl2, 1 mM DTT, 0.02 mg/mL BSA, and KCl at concentration 0, 40, 100, 200 or 400 mM at 37 °C for 48 h. RNA cleavage products were collected and analyzed as described above.

Data set [2] has as its system miR-17. Kind of data set: Ribonuclease activity assay, cleavage of miR-17. It counts as biochemical. The conditions noted are these: miRNA 1 µM, DC 20 µM, 37 °C. The method, then:
The ribonuclease activity of DCs was studied under two different buffer conditions: buffer (1) contained 50 mM Tris-HCl, pH 7.0, 200 mM KCl, 1 mM EDTA, which imitates intracellular conditions (e.g., pH and potassium ions concentration) and was used in a number of studies previously; and buffer (2) contained 20 mM Tris-HCl, pH 7.8, 40 mM KCl, 8 mM MgCl2, 1 mM DTT, 0.02 mg/mL BSA, which is recommended for in vitro reactions with RNase H (Figure 3 and Figure 4).
Figure 3 Kinetics of cleavage of 5′-[^32P]-labeled miR-17, miR-18a, miR-155, miR-21 and miR-21_1 by corresponding DCs in the buffer (1), containing 50 mM Tris-HCl, pH 7.0, 200 mM KCl and 1 mM EDTA. (a–e) Radioautographs of 18% denaturing PAAG showing the cleavage products of miR-17, miR-18a, miR-155, miR-21 and miR-21_1, respectively. miRNA (1 µM) and corresponding DC (20 µM) were incubated at 37 °C for 72 h. Lanes Im and T1—imidazole ladder and partial RNA digestion with RNase T1, respectively; control–miRNA was incubated in the absence of the conjugate. The incubation time (in hours) is show at the top. SS gap–single-stranded region of miRNA formed upon hybridization with DC; (f) Kinetics of miRNAs cleavage by DCs depending on the incubation time. Data are presented as mean ± s.e.
Figure 4 Kinetics of cleavage of 5′-[^32P]-labeled miR-17, miR-18a, miR-155, miR-21, and miR-21_1 by corresponding DCs in the buffer (2), containing 20 mM Tris-HCl, pH 7.8, 40 mM KCl, 8 mM MgCl2, 1 mM DTT, 0.02 mg/mL BSA. (a–e) Radioautographs of 18% denaturing PAAG showing the cleavage products of miR-17, miR-18a, miR-155, miR-21 and miR-21_1, respectively. miRNA (1 µM) and corresponding DC (20 µM) were incubated at 37 °C for 72 h. Lanes Im and T1–imidazole ladder and partial RNA digestion with RNase T1, respectively; control–miRNA was incubated in the absence of the conjugate. The incubation time (in hours) is shown at the top. SS gap–single-stranded region of miRNA formed upon hybridization with DC; (f) Kinetics of miRNAs cleavage by DCs. Data are presented as mean ± s.e.
The reaction mixture (10 µL) contained 800 cpm (Cherenkov’s counting) of [^32P]-miRNA, 1 μM unlabeled miRNA, one of the conjugates at a concentration 10 or 20 μM and one of the buffers: 50 mM Tris-HCl, pH 7.0, 200 mM KCl, 1 mM EDTA–buffer (1) or 20 mM Tris-HCl, pH 7.8, 40 mM KCl, 8 mM MgCl2, 1 mM DTT, 0.02 mg/mL BSA–buffer (2). The mixture was incubated at 37 °C for 0–72 h and quenched by precipitation of RNA with 2% LiClO4 in acetone (90 µL). RNA was collected by centrifugation and dissolved in loading buffer (8 M urea, 0.025% bromophenol blue, 0.025% xylene cyanol). RNA cleavage products were analyzed in 18% PAAG/8M urea using TBE (100 mM Tris-borate, pH 8.3, 2 mM EDTA) as running buffer. To identify cleavage sites, an imidazole and T1-ladders produced by partial RNA cleavage with 2 M imidazole buffer (pH 7.0) and with RNase T1 [68], respectively, were run in parallel. To obtain quantitative data, gels were dried and analyzed using Molecular Imager FX. The total extent of RNA cleavage and the extent of RNA cleavage at each individual site were determined by using Quantity One software v.4.1 (Bio-Rad, Hercules, CA, USA).

As to “CTACCTGC–linker 1–[GRLRL]2–linker 2–AAGCACTTTG [miRNA-17-DC, Dual oligonucleotide-peptide conjugate targeted to miR-17: catalytic peptide [LRLRG]2 between two 2-aminoadenine-containing oligodeoxyribonucleotides]”, the Cleavage in the data set with miR-17 [1] (K+ 0 mM) stood at 13.2±5.0%; in the data set with miR-17 [1] (K+ 40 mM) it was 22.5±4.3%; in the data set with miR-17 [1] (K+ 100 mM), 26.4±2.0%; in the data set on miR-17 [1] (K+ 200 mM), 13.7±3.5%; in the data set with miR-17 [1] (K+ 400 mM) it was 14.1±3.8%. For the same substance, the “most potent degradation of miRNA-target” value in the data set with miR-17 [1] (at 40–100 mM KCl) was “approximately 25%”. In addition, the “Total Cleavage” value with miR-17 [2] (buffer (1) 50 mM Tris-HCl pH 7.0, 200 mM KCl, 1 mM EDTA, 2 h) is 0%; with miR-17 [2] (buffer (1) 50 mM Tris-HCl pH 7.0, 200 mM KCl, 1 mM EDTA, 6 h), 0%; in the data set with miR-17 [2] (buffer (1) 50 mM Tris-HCl pH 7.0, 200 mM KCl, 1 mM EDTA, 24 h) it was 1%; in the data set with miR-17 [2] (buffer (1) 50 mM Tris-HCl pH 7.0, 200 mM KCl, 1 mM EDTA, 48 h), 2%; in the data set with miR-17 [2] (buffer (1) 50 mM Tris-HCl pH 7.0, 200 mM KCl, 1 mM EDTA, 72 h), 5%; in the data set with miR-17 [2] (buffer (2) 20 mM Tris-HCl pH 7.8, 40 mM KCl, 8 mM MgCl2, 1 mM DTT, 0.02 mg/mL BSA, 2 h) it was 1,5%. Also, the “Total Cleavage” value in the data set with miR-17 [2] (buffer (2) 20 mM Tris-HCl pH 7.8, 40 mM KCl, 8 mM MgCl2, 1 mM DTT, 0.02 mg/mL BSA, 6 h) was 4%; with miR-17 [2] (buffer (2) 20 mM Tris-HCl pH 7.8, 40 mM KCl, 8 mM MgCl2, 1 mM DTT, 0.02 mg/mL BSA, 24 h) it was 18%; with miR-17 [2] (buffer (2) 20 mM Tris-HCl pH 7.8, 40 mM KCl, 8 mM MgCl2, 1 mM DTT, 0.02 mg/mL BSA, 48 h), 32%; in the data set with miR-17 [2] (buffer (2) 20 mM Tris-HCl pH 7.8, 40 mM KCl, 8 mM MgCl2, 1 mM DTT, 0.02 mg/mL BSA, 72 h) it was 40%. The “rise of Kobs in buffer (2) compared to Kobs in buffer (1)” value in the data set with miR-17 [2] was 10 fold.
